Measurements reported in patent US12297296B2, “Nano small peptide and its use in preparation of drugs for treating and preventing fundus vascular diseases” (FUTU Biotech Co., Ltd., priority 2021, dated 2025).
Where a SMILES comes first, the peptide text is derived from it. [ ]: non-standard residue; d: D form. The star is where a group is joined. ξ: configuration not given here. Palmitoyl = CCCCCCCCCCCCCCCC(=O)*; ξF = NC(Cc1ccccc1)C(=O)O

What was measured:
OIR model mice = assay: Evans blue leakage test, fundus vascular leakage; type: in vivo, mouse; conditions: 2 nmol intravitreal
sSema4D [1] = biological target: T1, sSema4D (Mus musculus, UniProt O09126); assay: ELISA of sSema4D in vitreous humor after eye drops; type: in vivo; parameters: release and collect the vitreous humor; from tissue; host or cells: vitreous humor of C57 mice; conditions: C57 mice, 10 μL of 20 μM eye drops, morning and evening, 3 days
T1 sequence (O09126 24-733 limits assumed): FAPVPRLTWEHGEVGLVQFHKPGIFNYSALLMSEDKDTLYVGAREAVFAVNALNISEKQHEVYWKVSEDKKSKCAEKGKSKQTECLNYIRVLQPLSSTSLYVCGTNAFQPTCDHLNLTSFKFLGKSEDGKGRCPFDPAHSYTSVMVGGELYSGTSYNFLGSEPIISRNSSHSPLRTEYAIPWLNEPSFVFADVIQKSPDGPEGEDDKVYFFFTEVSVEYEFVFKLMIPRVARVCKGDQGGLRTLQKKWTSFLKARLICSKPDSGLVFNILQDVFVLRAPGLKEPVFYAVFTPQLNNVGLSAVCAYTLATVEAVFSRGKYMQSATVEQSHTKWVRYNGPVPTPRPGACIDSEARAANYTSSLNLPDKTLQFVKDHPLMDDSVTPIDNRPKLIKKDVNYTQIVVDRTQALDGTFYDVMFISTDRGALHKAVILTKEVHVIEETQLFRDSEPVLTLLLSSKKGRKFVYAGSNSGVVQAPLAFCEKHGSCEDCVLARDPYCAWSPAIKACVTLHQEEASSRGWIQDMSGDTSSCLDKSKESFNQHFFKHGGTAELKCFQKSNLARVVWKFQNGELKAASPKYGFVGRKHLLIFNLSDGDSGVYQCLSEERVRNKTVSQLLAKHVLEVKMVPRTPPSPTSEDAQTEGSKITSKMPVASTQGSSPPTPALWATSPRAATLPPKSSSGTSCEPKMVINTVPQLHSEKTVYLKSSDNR
From the text: In this example, 8-week-old C57 male mice were used, with ten data points in each group, and each data point was the average of the experimental results of 5 mice.
The water on the eyeballs was then removed with filter paper to release and collect the vitreous humor. ELISA kit (Shanghai Yuanmu Biotechnology Co., Ltd.) was used to detect the expression of sSema4D protein in vitreous humor.
Control group was instilled with the same volume of PBS solution; vehicle group was instilled the same volume of artificial tears (Systane).

[2] = test system: endothelial cells (primary endothelial cells of mouse brain microvessels); assay: CCK8 cytotoxicity assay; type: cell-based; conditions: 20 μM; 12, 14, and 36 h
[3] = test system: primary mouse brain microvascular endothelial cells; assay: Endothelial cell migration (transwell experiment); type: cell-based; conditions: 20 μM, 24 h; for sSema4D-induced endothelial cell migration: sSema4D 1600 ng/mL
Procedure: The primary mouse brain microvascular endothelial cells were starved with 0.5% ECM for 4 to 6 h. The mouse brain microvascular endothelial cells were seeded in the upper layer of a 24-well transwell chamber (8 μm). 1% ECM medium containing FH (20 μM), FG (20 μM), and Sema4D neutralizing antibody (BMA-12) (2 μg/μL) (the concentration of sSema4D in the medium is 1600 ng/mL) was added to the lower chamber, and an equal volume of DMSO was added as control. The cells were incubated in a 5% CO2 incubator at 37° C. for 24 h. 24 h later, the cells on the bottom of the chamber were fixed with 4% paraformaldehyde and stained with crystal violet, and the endothelial cells that penetrated to the bottom of the chamber were counted under a microscope.

[4] = In vivo imaging of small animals, entry into vitreous humor; parameters: species or system mouse; conditions: eye drops (10 μL, 20 μM, three times at 1 h intervals) and vitreous injection (1 μl, 20 μM)
Procedure: 10 μL of FH and FG eye drops (with the concentration of 20 μM, the solvent therein was artificial tears) were instilled on the eyeball surface of mice (8-week-old C57 male mice), once at an interval of 1 h. One hour after the third eye drop, the mice were anesthetized to have cardiac perfusion, the eyeballs of the mice were taken out, the connective tissue on the eye surface was trimmed, and the eyeballs were washed with PBS solution for several times to remove the nano eye drops from the surface of the eyeballs. The eyeball was placed in a small animal imager (at emission wavelength of 535 nm and excitation wavelength of 490 nm) for image acquisition.
Mice (8-week-old C57 male mice) were anesthetized with 4.3% chloral hydrate (0.01 ml/g), and antibiotic eye drops (levofloxacin eye drops), ocular surface anesthetics (Obucaine hydrochloride eye drops) were instilled before the surgery. The head position of the mouse was adjusted to keep the eyeball at the level of the corneal limbus. A small incision was made 1 mm behind the corneal limbus with an insulin injection needle, and 1 μl of nanomedicine FH (20 μM, FG (20 μM) or solvent was injected into the vitreous cavity along the small incision with a Hamilton 33 G syringe); the needle tip entered vertically and then tilted, and after pushing, the needle was retained for 0.5 to 1 min, and the needle was then pulled out quickly. […]

[5] = DLS particle size and zeta potential of nanoparticles; type: physicochemical; conditions: zeta sizer, 25° C.
Procedure: (§1) First, FG and FH nanoparticle solutions with a concentration of 20 μM were prepared as follows. 0.01 mmol of FG (or FH) was weighed and dissolved in 1 mL of DMSO solution, and then diluted into 5 folds to a concentration of 2 mM, thus obtaining mother solution A. 10 μL of mother solution A was quickly added to 1 mL of water, and the resulting solution was then vortexed for 30 s to obtain a nanoparticle solution. Second, samples were made. 10 ul of FG (or FH) solution was added dropwise onto a copper mesh for 5 min, and the excess solution was removed with filter paper. 10 μL of uranyl acetate stain was added dropwise for 5 min, and the excess stain was removed with filter paper. Washing with 10 μl of deionized water was carried out once. The samples were dried in vacuum overnight. Finally, transmission electron microscopy observations were performed on an HT-7700 transmission electron microscope (Hitachi, Tokyo, Japan). Scale bar was 200 nm.
The particle size and zeta potential of FH and FG nanoparticles were measured with a zeta sizer (Nano ZZ90, Malvern, UK) at 25° C.

sSema4D [6] = biological target: T1, sSema4D; assay: CD spectra of nanoparticles before and after induction by sSema4D protein; type: physicochemical; parameters: the free Sema4D protein after enzyme cleavage of Sema4D, that is, the sSema4D protein purchased from R&D Systems Company; purchased R&D Systems; conditions: 20 μM; for CD secondary structure before induction by sSema4D protein: H2O containing 0.5% dimethyl sulfoxide, signal at 200 nm negative; for CD secondary structure after induction by sSema4D protein: signal at 200 nm positive, negative signal at 220 nm
Procedure: as §1
The CD spectra of FH and FG nanoparticles (20 μM) were collected at room temperature using a CD spectrometer (JASCO-1500, Tokyo, Japan) with an optical path length of 1 mm. Measurements were performed between 190 nm and 300 nm with a resolution of 1.0 nm at a scan speed of 300 nm/min. For each measurement, three spectra were collected and averaged.

Structure (SMILES) | treatment effect on fundus vascular leakage compared with anti-Sema4D (1 μg) (OIR model mice) | vascular leakage of the fundus (OIR model mice) | expression of sSema4D protein in the vitreous humor (sSema4D [1]) | toxic effects on endothelial cells [2] | inhibition of endothelial cell migration compared with Sema4D neutralizing antibody (BMA-12, 2 μg/μL) [3] | sSema4D-induced endothelial cell migration [3] | entry into the vitreous humor of mice [4] | charge (zeta potential) [5] | particle diameter [5] | CD secondary structure before induction by sSema4D protein (sSema4D [6]) | CD secondary structure after induction by sSema4D protein (sSema4D [6])
CCCCCCCCCCCCCCCC(=O)NC(Cc1ccccc1)C(=O)N[C@@H](Cc1ccccc1)C(=O)N[C@H](C(=O)N[C@@H](CC(C)C)C(=O)N[C@@H](CCCCN)C(=O)N[C@@H](CCCCN)C(=O)N[C@@H](CCC(N)=O)C(=O)N[C@@H](CCCCN)C(=O)N[C@@H](CCCNC(=N)N)C(=O)N1CCC[C@H]1C(=O)N[C@@H](CCCNC(=N)N)C(=O)N[C@@H](Cc1c[nH]cn1)C(=O)O)C(C)C (stereo in doubt) [FH, hexadecanoyl-FFVLK-KQKRPRH] | comparable | can inhibit vascular leakage of the fundus | reduce the expression of sSema4D protein in the vitreous humor | did not cause toxic effects | more effective | significantly inhibit | entered the vitreous humor | +40.4 mV | 54.43±2.8 nm | random coil structure | transition to a β-sheet folded structure
CCCCCCCCCCCCCCCC(=O)NC(Cc1ccccc1)C(=O)N[C@@H](Cc1ccccc1)C(=O)N[C@H](C(=O)N[C@@H](CC(C)C)C(=O)N[C@@H](CCCCN)C(=O)N[C@@H](CCCCN)C(=O)N[C@@H](CC(N)=O)C(=O)N[C@@H](CCCCN)C(=O)N[C@@H](C)C(=O)N[C@@H](C)C(=O)N[C@@H](CCCCN)C(=O)NCC(=O)O)C(C)C (stereo partly shown) [FG] (Palmitoyl-[ξF]FVLKKNKAAKG-OH) | comparable | can inhibit vascular leakage of the fundus | reduce the expression of sSema4D protein in the vitreous humor | did not cause toxic effects | more effective | significantly inhibit | entered the vitreous humor | +44.8 mV | 57.67±2.6 nm | random coil structure | transition to a β-sheet folded structure
